Data set [1] in a line: Small-animal PET of PC-3 tumor-bearing mice. The conditions noted are these: male, athymic nude, mouse, in vivo, iv, total radioactivity, 3.7 MBq.
For the next data set, the system named is PC-3 tumor cells. Briefly: Cell uptake assay on PC-3 tumor cells. The conditions noted are these: PC-3 cells, 37° C., 15 min incubation. The data set is classed as cell-based, human. The gist of the method:
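PC-3 cells incubated with ^18F- or ^68Ga-labeled tracers (about 2 μCi or 18 kBq/well) at 37° C for 5–120 min, washed, then lysed or trypsinized and gamma-counted. Uptake given as % added dose, decay-corrected for ^68Ga; efflux measured after 1 h loading then 15–60 min in medium.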

Data set [2] is described as follows: Small-animal PET of MDA-MB-435 tumor-bearing mice. The conditions noted are these: female, athymic nude, mouse, in vivo, iv, total radioactivity.
Protocol: The MDA-MB435 tumor model was established by orthotopic injections of 5×10^6 cells into the right mammary fat pad of female athymic nude mice. […] The mice were subjected to microPET studies when the tumor volume reached 100-300 mm^3 (2-3 weeks for MDA-MB-435, and 4-5 wk for T47D).
For static PET, 5-min scans were acquired at 30 min, 1 h, and 2 h after injection. For dynamic PET, 30-min scans (1×30 s, 4×1 min, 1×1.5 min, 4×2 min, 5×3 min; total 15 frames) were started 1 min after injection, and two 5-min static PET images were also acquired at 1 h and 2 h after injection. The images were reconstructed using a two-dimensional ordered subsets expectation maximum (OSEM) algorithm and no correction was applied for attenuation or scatter. […] For each small-animal PET scan, regions of interest (ROIs) were drawn over the tumor, normal tissue, and major organs using vendor software ASI Pro 5.2.4.0 on decay-corrected whole-body coronal images. The maximum radioactivity concentrations (accumulation) within a tumor or an organ were obtained from mean pixel values within the multiple ROI volume, and were converted to megabecquerels per milliliter per minute using a conversion factor. These values were then divided by the administered activity to obtain (assuming a tissue density of 1 g/ml) an image ROI-derived percent injected dose per gram (% ID/g).
(§1) Quantification of tumor and major organ activity accumulation in the microPET scans was realized by measuring the regions of interest (ROIs) that encompassing the entire organ on the coronal images.
The next data set has as its system T47D tumor cells. Kind of data set: Cell uptake assay on T47D tumor cells. The following applies: 120 min, 37° C., n=3. Format: cell-based, human. As for the experimental part:
The cells suspensions were collected and measured in a y counter (Packard, Meriden, Conn.). The cell uptake was expressed as the percent added dose (% AD) after decay correction. Experiments were performed twice with triplicate wells.

Data set [3] can be described thus: MicroPET of T47D tumor-bearing mice. The data set is classed as in vivo. The conditions noted are these: female, nude, mouse, T47D tumor, iv, total radioactivity, orthotopic model.
Description: The MDA-MB-231, MDA-MB468, BT474, BT-20, T47D, MCF-7 and MDA-MB435 human breast cancer cell lines were all obtained from the American Type Culture Collection (ATCC) and maintained under standard conditions according to ATCC. The MDA-MB435 tumor model was established by orthotopic injections of 5×10^6 cells into the right mammary fat pad of female athymic nude mice. For T47D tumor model establishment, the female nude mice were first subcutaneously implanted with 60-day release 17β-estradiol pellets (Innovative Research of America, Sarasota, Fla.) in the left neck. One day after the estradiol implantation, 1×10^7 T47D cells were orthotopically injected into the right mammary fat pad of the nude mice. The mice were subjected to microPET studies when the tumor volume reached 100-300 mm^3 (2-3 weeks for MDA-MB-435, and 4-5 wk for T47D).
as §1
The mark [4] stands for this setting: PC-3 tumor uptake, dynamic scan.
[5] abbreviates: PC-3 tumor uptake, static scan after dynamic scan.

In the case of `CSCC[C@H](NC(=O)[C@H](CC(C)C)NC(=O)[C@H](Cc1c[nH]cn1)NC(=O)CNC(=O)[C@@H](NC(=O)[C@H](C)NC(=O)[C@H](Cc1c[nH]c2ccccc12)NC(=O)[C@H](CCC(N)=O)NC(=O)CCCCCNC(=O)CC[C@H](NC(=S)Nc1ccc(C[C@H]2CN(CC(=O)O)CCN(CC(=O)O)CCN2CC(=O)O)cc1)C(=O)NCCCC[C@@H]1NC(=O)[C@@H](Cc2ccc(O)cc2)NC(=O)[C@H](CC(=O)O)NC(=O)CNC(=O)[C@H](CCCNC(=N)N)NC1=O)C(C)C)C(N)=O` [^68Ga-NOTA-RGD-BBN, metal not drawn], the tissue uptake at 1 h in data set [1] (10 mg/kg, PC-3 tumor uptake with RGD blocking, 1 h, co-injected c(RGDyK) 10 mg/kg) worked out at 2.08 ± 0.65 %ID/g; in data set [1] (PC-3 tumor uptake), 5.26 ± 0.32 %ID/g; in data set [1] (setting [5]), 4.47 %ID/g; in data set [1] (PC-3 tumor uptake with BBN blocking, 1 h, co-injected Aca-BBN(7-14) 15 mg/kg) it was 1.61 ± 0.57 %ID/g; in data set [1] (PC-3 tumor uptake with RGD+BBN blocking, 1 h, co-injected RGD 10 mg/kg and BBN 15 mg/kg), 0.42 ± 0.1 %ID/g; in data set [2] (3.7 MBq, MDA-MB435 tumor uptake), 3.23 ± 0.86 %ID/g. Besides, the tissue uptake at 1 h came to 2.24 ± 0.73 %ID/g in data set [2] (MDA-MB-435 tumor uptake) and 2.78 ± 0.87 %ID/g in data set [3] (1 h). Besides, the tissue uptake at 0.5 h is 6.55 ± 0.83 %ID/g in data set [1] (PC-3 tumor uptake), 6.7 %ID/g in data set [1] (setting [4]), roughly 2 %ID/g in data set [1] (liver uptake (highest)) and 3.91 ± 1.13 %ID/g in data set [3] (0.5 h). For the same compound, the tissue uptake at 2 h in data set [1] (PC-3 tumor uptake) stood at 4.04 ± 0.28 %ID/g; in data set [1] (setting [5]) it was 3.75 %ID/g; in data set [2] (MDA-MB-435 tumor uptake) it was 1.84 ± 0.72 %ID/g; in data set [3] (2 h) it was 2.42 ± 0.29 %ID/g. Besides, the tissue uptake at 5 min in data set [1] (setting [4]) came to 5.56 %ID/g. For the same compound, the tissue uptake at 0.25 h in data set [1] (setting [4]) was 6.68 %ID/g. Besides, in the data set with PC-3 tumor cells, the “cell uptake (plateau)” value is given as 1.69±0.29 % AD. Besides, in the data set on T47D tumor cells, the “T47D cell uptake value” worked out at 2.42±0.23 % AD.

By tissue uptake is commonly meant the percentage of the injected dose found per gram of tissue.
